Source: US20050209157A1, “Short bioactive peptides and methods for their use” (priority 2001, published 2005)
≈ marks a conversion by molar mass, not a printed value. Where two headings read alike, the source gives them in different places. No end group written: not given here.

Key:
[1] = system: Escherichia coli 25922; test: microbe, parasite or virus in culture
Description: Synergy between peptide Shiva-10 (SEQ ID NO:4) and various antimicrobial agents was investigated against Escherichia coli 25922.
Synergy between tetracycline and various peptides was investigated against Escherichia coli 25922 MBC. […] When combined with the peptides, the concentration of tetracycline was held at 1.5 ppm.

[2] = system: Staph. aureus 29213; test: microbe, parasite or virus in culture; settings: for MBC: Staphylococcus aureus, 29213, read-out: MBC, Without peptide; for MBC, With 5 μg/mL peptide: with 5 μg/mL peptide Shiva-10
Description: This experiment determined the peptide MBC in the absence of the antimicrobial agent, or in the presence of the indicated concentration of antimicrobial agent

[3] = in vitro; format: cell-based, human; settings: human, human red blood cells
[4] = system: human red blood cells (RBC); test: in vitro; format: cell-based; settings: human red blood cells
[5] = system: Escherichia coli ATCC 25922; test: Antimicrobial assay I, modified protocol (tryptic soy broth), MBC; settings: minimum bactericidal concentration, Table 4
[6] = system: Pseudomonas aeruginosa ATCC 27853; test: as above; settings: minimum bactericidal concentration, Table 4
[7] = system: fungal; test: Presently preferred antifungal peptides, selected from the MIC/MBC data; format: cell-based; settings: X = preferred
Description: The peptide's “length” is the number of amino acid residues in the sequence.

[8] = in vitro; settings: human, WI38 normal lung fibroblast cells
[9] = system: Stapholococcus aureus ATCC 25923; test: Antimicrobial assay I, modified protocol (tryptic soy broth), MBC; settings: minimum bactericidal concentration, Table 4
[10] = system: cancer cell lines; test: Anti-cancer assays, MTT, summary over the cancer cell lines; format: cell-based; settings: X = preferred
[11] = system: Candida albicans ATCC 10231; test: Antimicrobial assay I, modified protocol (tryptic soy broth), MFC; settings: minimum fungicidal concentration, Table 4
Description: The preparation of all media, stock solutions, and dilutions took place in a laminar flow hood to prevent contamination. Bacterial cells were freshly grown on antibiotic medium 2 agar slants (pH 7.0 at 25° C.). Bacteria were suspended and diluted in antibiotic medium 3 to about 10^4 cfu/ml and used as the inoculum. Sample solutions (100 μl/well) were added to plates according to the plate layout. Inoculum (100 μl/well) was added to achieve a final concentration of 5×10^3 cfu/ml. Negative controls received 100 μl saline and 100 μl growth medium. Positive controls received 100 μl saline and 100 μl inoculum. Bacterial plates were incubated at 37° C. for 24 hours.
However, the data for Table 4 were obtained with a modified protocol wherein the medium was tryptic soy broth, inocolum strength was approximately 10^4 CFU per ml, and values determined were minimum bactericidal concentrations (MBC) or minimum fungicidal concentrations (MFC).
MBC or MFC values are in μg/mL. E. coli is Escherichia coli ATCC accession number 25922; P. aerug is Pseudomonas aeruginosa ATCC accession number 27853, S. aur. is Stapholococcus aureus ATCC accession number 25923; Candida is Candida albicans ATCC accession number 10231.

[12] = system: human fibroblast cells (WI38); test: Stimulation and proliferation of fibroblasts, CyQuant; format: cell-based; settings: for Peptide treated cell activity Stimulation relative to control: 48 hrs, 2.0% FBS
Description: Procedure: Different cell lines were maintained with different medium according to the ATCC. […] The cell suspension was centrifuged for 10 minutes at 100 rpm. The supernatant was removed and discarded without disturbing the cell pellet. A concentrated cell suspension was prepared in 1.0 ml of medium to obtain a density of about 10^5 to 10^6 cells/ml. The actual cell density was determined by counting the cells using a hemocytometer with the Trypan Blue method. Cell numbers were adjusted to obtain equal number of cells per 200 μl volume. Cells were plated with 0% FBS, 2% FBS, 3% FBS and 5% FBS. The plates were incubated at 37° C. for a time sufficient to allow the cells to attach. For long-term proliferation studies, 100 μl of medium was removed from each well each day and replaced with fresh medium.
At the desired time, the medium was removed from the adherent cells in a 96 well plate. These cells were already treated with test agents. The cells were frozen in the plate at −70° C. for 30 minutes. The cells were thawed at room temperature. CyQuant GR dry/Cell Lysis Buffer (200 μl) was added to each sample cell. The cells were incubated at room temperature for 15 minutes while protected from the light. Fluorescence was measured using fmax at 485-538 nm.
The above CyQuant protocol was used to examine possible peptide stimulation and/or proliferation of fibroblasts. […] This is shown by the addition of Fetal Bovine Serum (FBS) to the medium. […] Control cells and peptide treated cells are with medium and FBS as indicated.

[13] = system: human leukocyte (WBC) cells; test: Stimulation and proliferation of leukocytes, Alamar Blue; format: cell-based; settings: 48 hours
[14] = system: S. pyogenes ATCC19615; test: Antimicrobial assays II, NCCLS broth microdilution MIC; format: cell-based, Streptococcus pyogenes; settings: mean of three, in µg/mL
[15] = system: P. acne ATCC 6919; test: as above; format: cell-based, Propionibacterium acnes; settings: mean of three, in µg/mL
[16] = system: Staphylococcus aureus ATCC 6538; test: Antimicrobial assay I, MIC by OD measurement; format: cell-based; settings: 37° C. for 24 hours, absorbance 620 nm
[17] = system: Pseudomonas aeruginosa ATCC 9027; test: Antimicrobial assay I, MIC by OD measurement; format: cell-based; settings: 37° C. for 24 hours, absorbance 620 nm
[18] = system: P. aeruginosa H774; format: cell-based, Pseudomonas aeruginosa; settings: P. aeruginosa H744; nalidixic acid + peptide at ¼ MIC; 0.5 or less = synergy
Method in brief: (§1)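 FIC index, computed as 0.25 plus the ratio of combination to single-agent antibiotic MIC, defines synergy when 0.5 or below. Peptide fixed at one quarter MIC while chloramphenicol or nalidixic acid was serially diluted two-fold; antibiotic-alone MICs served as baselines.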

[19] = system: P. aeruginosa; format: cell-based, Pseudomonas aeruginosa; settings: P. aeruginosa H744; MIC of nalidixic acid with peptide at ¼ MIC
Method in brief: as §1

[20] = system: P. aeruginosa H374; format: cell-based, Pseudomonas aeruginosa; settings: for FIC Index: 0.5 or less = synergy
Method in brief: as §1

[21] = system: yeast (Saccharomyces cerevisiae); test: Antimicrobial assay I, yeast assay in RPMI 1640; format: cell-based; settings: RPMI 1640 media
[22] = system: BMKC; test: Anti-cancer assay, MTT, LD50; format: cell-based; settings: BMKC cloned melanoma line, 24 hours with peptide
Description: (§2) Numbers are LD50 values (μg/mL).

[23] = system: H1299; test: Anti-cancer assay, MTT, LD50; format: cell-based; settings: 24 hours with peptide, lung large cell carcinoma
Description: as §2

[24] = system: MCF7; test: Anti-cancer assay, MTT, LD50; format: cell-based; settings: MCF7 breast adenocarcinoma line, MTT, 24 hours with peptide
Description: as §2

[25] = system: HeLaS3; test: Anti-cancer assay, MTT, LD50; format: cell-based; settings: 24 hours with peptide, cervical carcinoma
Description: as §2

[26] = system: SW480; test: Anti-cancer assay, MTT, LD50; format: cell-based; settings: SW480 colon adenocarcinoma line, 24 hours with peptide
Description: as §2

[27] = system: PC3; test: Anti-cancer assay, MTT, LD50; format: cell-based; settings: 24 hours with peptide, prostate adenocarcinoma
Description: as §2

[28] = system: S. aureus (MRSA); format: cell-based, Staphylococcus aureus; settings: mean of three; 16 to 20 hours at 35° C.
[29] = system: WI38; settings: MTT, 24 hours with peptide; normal fibroblast line
[30] = system: S. pyogenes M76; test: Antimicrobial assays II, NCCLS broth microdilution MIC; format: cell-based, Streptococcus pyogenes; settings: mean of three; 16 to 20 hours at 35° C.
[31] = system: S. epidermidis C621; format: cell-based, Staphylococcus epidermidis; settings: mean of three; 16 to 20 hours at 35° C.
[32] = system: S. pneumoniae C718; test: Antimicrobial assays II, NCCLS broth microdilution MIC; format: cell-based, Streptococcus pneumoniae; settings: mean of three
[33] = Escherichia coli, 25922, read-out: MBC, Without peptide
[34] = pH 7, hemolytic assay, concentration at 50% hemolysis, 1 hour at 37° C., read-out: LD50

Molecule: CC1(C)S[C@@H]2[C@H](NC(=O)[C@H](C(=O)O)c3ccsc3)C(=O)N2[C@H]1C(=O)O [Ticarcillin]
- MBC [1, 33]: 100 µg/mL
- MBC, With peptide ([1]; with 15 μg/mL peptide Shiva-10): 50 µg/mL
- MBC [2]: 25 µg/mL (≈ 65 µM)
- MBC, With 5 μg/mL peptide [2]: 15 µg/mL (≈ 39 µM)

Molecule: CCN1CCN(C(=O)N[C@@H](C(=O)N[C@@H]2C(=O)N3C(C(=O)O)=C(CSc4nnnn4C)CS[C@H]23)c2ccc(O)cc2)C(=O)C1=O [Cefoperazone]
- MBC [1, 33]: 150 µg/mL
- MBC, With peptide ([1]; with 15 μg/mL peptide Shiva-10): 2.5 µg/mL
- MBC [2]: 10 µg/mL (≈ 15.5 µM)
- MBC, With 5 μg/mL peptide [2]: 2.5 µg/mL (≈ 3.87 µM)

Molecule: CC(C)C[C@H](NC(=O)[C@H](C)NC(=O)[C@H](CC(C)C)NC(=O)[C@H](C)NC(=O)[C@H](CC(C)C)NC(=O)[C@H](CCCCN)NC(=O)[C@H](C)NC(=O)[C@H](CC(C)C)NC(=O)[C@H](CCCCN)NC(=O)[C@H](CCCCN)NC(=O)[C@H](C)NC(=O)[C@H](CC(C)C)NC(=O)[C@H](CCCCN)NC(=O)[C@H](CCCCN)NC(=O)[C@H](CC(C)C)NC(=O)[C@H](CCCCN)NC(=O)[C@H](CCCCN)NC(=O)[C@H](C)NC(=O)[C@H](CC(C)C)NC(=O)[C@H](CCCCN)NC(=O)[C@H](CCCCN)NC(=O)[C@H](C)NC(=O)[C@@H](N)Cc1ccccc1)C(N)=O [P11, reference compound]
- HC50 at 1 h [3, 34]: 76 µg/mL
- MBC, Without peptide ([1]; agent alone): 50 µg/mL
- MBC, Without peptide ([2]; agent alone): 200 µg/mL (≈ 78.9 µM)

Molecule: CN(C)[C@@H]1C(O)=C(C(N)=O)C(=O)[C@@]2(O)C(O)=C3C(=O)c4c(O)cccc4[C@@](C)(O)[C@H]3C[C@@H]12 [Tetracycline]
- MBC ([1]; Escherichia coli, 25922, read-out: MBC of tetracycline): 10 µg/mL
- MBC [1, 33]: 10 µg/mL
- MBC, With peptide ([1]; with 5 μg/mL peptide Shiva-10): 2.5 µg/mL
- MBC [2]: 10 µg/mL (≈ 22.5 µM)
- MBC, With 5 μg/mL peptide [2]: 1 µg/mL (≈ 2.25 µM)

Molecule: FALALKALKKALKKLKKALKKAL-NH2 [compound 2]
- Peptide toxicity RBC LD/50 [4]: 30
- HC50 at 1 h ([3]; pH 7, Table 26, valine substitution, read-out: Hemolysis RBC LD50): 12 µg/mL
- MBC E. coli A.25922 [5]: 25 µg/mL
- MBC P. aerug A.27853 [6]: 10 µg/mL
- Anti-fungal (preferred peptide) [7]: X (Preferred antifungal peptides can be selected as having MIC or MBC values of less than or equal to about 25 μg/ml)
- CC50 at 24 h ([8]; Peptide toxicity WI-38 LD/50, human fibroblast cells): 66 µg/mL
- CC50 at 24 h ([8]; WI-38 LD50, Table 26, valine substitution): 66 µg/mL
- MBC S. aur A.25923 [9]: 25 µg/mL
- Anti-cancer (preferred peptide) [10]: X (Preferred anticancer peptides can be selected as having LD50 values of less than or equal to about 25 μg/ml)
- MFC Candida A.10231 [11]: >50 µg/mL
- percent cell viability above or below control ([12]; 0.1 μg/ml, 0% FBS): −27%
- Peptide treated cell activity Stimulation relative to control ([12]; 0.1 μg/ml): 125%
- percent cell viability above or below control ([12]; 0.1 μg/ml, […] FBS): 26%
- percent cell viability above or below control ([12]; 1 μg/ml, 0% FBS): −3%
- Peptide treated cell activity Stimulation relative to control ([12]; 1 μg/ml): 156%
- percent cell viability above or below control ([12]; 1 μg/ml, […] FBS): 57%
- percent cell viability above or below control ([12]; 10 μg/ml, 0% FBS): 27%
- Peptide treated cell activity Stimulation relative to control ([12]; 10 μg/ml): 122%
- percent cell viability above or below control ([12]; 10 μg/ml, […] FBS): 23%
- percent cell viability above or below control ([12]; 100 μg/ml, 0% FBS): −82%
- Peptide treated cell activity Stimulation relative to control ([12]; 100 μg/ml): 35%
- percent cell viability above or below control ([12]; 100 μg/ml, […] FBS): −66%
- Peptide treated cell activity Percent stimulation relative to control ([13]; 0.1 ug/ml): 117%
- Peptide treated cell activity Percent stimulation relative to control ([13]; 1 ug/ml): 118%
- Peptide treated cell activity Percent stimulation relative to control ([13]; 10 ug/ml): 119%
- Peptide treated cell activity Percent stimulation relative to control ([13]; 100 ug/ml): 121%
- Peptide treated cell activity Percent stimulation relative to control ([13]; 500 ug/ml): 119%

Molecule: CC(C)C[C@H](NC(=O)[C@H](C)NC(=O)[C@H](CC(C)C)NC(=O)[C@H](CCCCN)NC(=O)[C@H](C)NC(=O)[C@H](CC(C)C)NC(=O)[C@H](CCCCN)NC(=O)[C@H](CCCCN)NC(=O)[C@H](C)NC(=O)[C@H](CC(C)C)NC(=O)[C@H](CCCCN)NC(=O)[C@H](C)NC(=O)[C@H](CC(C)C)NC(=O)[C@H](CCCCN)NC(=O)[C@H](CCCCN)NC(=O)[C@H](C)NC(=O)[C@@H](N)Cc1ccccc1)C(N)=O [P35]
- HC50 at 1 h [3, 34]: 200 µg/mL
- S. pyogenes MIC [14]: 16
- P. acne MIC [15]: 4
- staph6538 (MIC) [16]: 5 µg/mL
- paerug9027 (MIC) [17]: 200 µg/mL
- FIC Index [18]: 1.25
- MIC Nal-comb. [19]: 624 µg/mL
- MIC Cm-comb. ([20]; MIC of chloramphenicol with peptide at ¼ MIC): 16 µg/mL
- MIC Nal-comb. ([20]; MIC of nalidixic acid with peptide at ¼ MIC): 10,000 μg/ml
- FIC Index ([20]; chloramphenicol + peptide at ¼ MIC): 1.25
- FIC Index ([20]; nalidixic acid + peptide at ¼ MIC, FIC=0.25+MIC comb/MIC alone): 2.25
- yeast (MIC or MFC) [21]: 25 µg/mL
- CC50 at 24 h ([8]; LD50 WI38, WI38 normal lung fibroblast line, MTT, 24 hours with peptide): 8 µg/mL (≈ 4.31 µM)
- LD50 BMKC [22]: 7 µg/mL
- H1299 LD50 [23]: 16 µg/mL
- LD50 MCF7 [24]: 9 µg/mL
- HeLaS3 LD50 [25]: 27 µg/mL
- LD50 SW480 [26]: 14 µg/mL
- PC3 LD50 [27]: 5 µg/mL
- S. aureus (MRSA) MIC [28]: 8 µg/mL
- WI38 LD50 [29]: 8 µg/mL
- S. pyogenes M76 MIC [30]: 4 µg/mL
- S. epidermidis C621 MIC [31]: 4 µg/mL
- MBC of peptide ([2]; in the presence of Cefoperazone ([…])): 20 µg/mL
- MBC of peptide ([2]; in the presence of Vancomycin (1 ppm)): 32 µg/mL
- MBC of peptide ([2]; peptide alone): 50 µg/mL
- S. pneumoniae MIC [32]: 4 µg/mL
